The values below come from article PMC8550792, “Evolution of kinase polypharmacology across HSP90 drug discovery” (Cell Chemical Biology, 2021).

Molecules are shown by their SMILES.

Common to all, as to experiment: biochemical
What all share (assay type): biochemical

For assay [1], the target named is T1, 382 unique human kinases (Homo sapiens, UniProt O43353).
T1 construct: purchased Reaction Biology (HotSpot contract assay)
The following applies: RIPK2, 10 uM; for remaining activity at 10 µM: read-out: % Enzyme Activity (relative to DMSO controls).

The target of assay [2] is T2, 382 unique human kinases (Homo sapiens, UniProt Q8WXR4).
T2 construct: purchased Reaction Biology (HotSpot contract assay)
T2 sequence (Q8WXR4 1-1341): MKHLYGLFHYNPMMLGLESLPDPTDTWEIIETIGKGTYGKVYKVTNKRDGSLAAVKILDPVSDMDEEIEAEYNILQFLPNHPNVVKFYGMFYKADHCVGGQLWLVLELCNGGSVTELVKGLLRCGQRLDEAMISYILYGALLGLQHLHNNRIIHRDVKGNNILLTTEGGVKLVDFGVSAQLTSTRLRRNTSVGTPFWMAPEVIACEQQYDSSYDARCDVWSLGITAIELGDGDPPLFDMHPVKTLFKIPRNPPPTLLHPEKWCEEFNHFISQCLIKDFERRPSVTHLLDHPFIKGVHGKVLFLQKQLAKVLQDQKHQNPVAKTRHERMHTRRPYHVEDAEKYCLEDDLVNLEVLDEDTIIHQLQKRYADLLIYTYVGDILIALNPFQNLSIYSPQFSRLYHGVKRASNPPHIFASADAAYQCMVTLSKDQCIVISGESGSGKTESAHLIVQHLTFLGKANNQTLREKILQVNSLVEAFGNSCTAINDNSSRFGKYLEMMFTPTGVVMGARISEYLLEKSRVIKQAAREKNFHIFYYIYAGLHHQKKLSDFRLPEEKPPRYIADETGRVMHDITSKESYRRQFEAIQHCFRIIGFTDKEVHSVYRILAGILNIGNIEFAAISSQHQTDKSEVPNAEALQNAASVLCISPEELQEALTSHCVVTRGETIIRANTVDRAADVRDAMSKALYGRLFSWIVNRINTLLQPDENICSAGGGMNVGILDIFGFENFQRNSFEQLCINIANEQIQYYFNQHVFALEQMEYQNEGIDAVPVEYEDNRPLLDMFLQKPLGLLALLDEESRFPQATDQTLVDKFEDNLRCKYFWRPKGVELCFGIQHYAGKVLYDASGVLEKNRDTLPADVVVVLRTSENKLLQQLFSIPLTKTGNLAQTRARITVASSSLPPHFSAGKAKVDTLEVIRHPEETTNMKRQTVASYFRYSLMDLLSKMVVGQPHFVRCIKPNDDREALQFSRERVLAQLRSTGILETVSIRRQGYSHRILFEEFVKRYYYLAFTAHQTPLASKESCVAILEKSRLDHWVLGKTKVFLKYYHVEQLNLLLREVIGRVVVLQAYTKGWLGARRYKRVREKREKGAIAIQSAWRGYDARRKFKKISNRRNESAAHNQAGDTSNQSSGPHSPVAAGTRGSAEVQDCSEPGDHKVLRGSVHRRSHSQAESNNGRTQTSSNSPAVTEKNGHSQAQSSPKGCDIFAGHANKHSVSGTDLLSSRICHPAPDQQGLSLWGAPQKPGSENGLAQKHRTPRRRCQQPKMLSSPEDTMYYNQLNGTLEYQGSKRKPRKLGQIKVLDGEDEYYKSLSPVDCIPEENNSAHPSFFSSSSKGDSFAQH
As to conditions: kinase MYO3b, compound 10 uM; for remaining activity at 10 µM: read-out: % Enzyme Activity (relative to DMSO controls).

Assay [3] concerns the target T3, 382 unique human kinases (Homo sapiens, UniProt P07949).
T3 construct: purchased Reaction Biology (HotSpot contract assay)
The following applies: kinase RET, compound 10 uM; for remaining activity at 10 µM: read-out: % Enzyme Activity (relative to DMSO controls).

Assay [4] deals with T4, 382 unique human kinases (Homo sapiens, UniProt Q8IWQ3).
T4 construct: purchased Reaction Biology (HotSpot contract assay)
T4 sequence (Q8IWQ3 1-736): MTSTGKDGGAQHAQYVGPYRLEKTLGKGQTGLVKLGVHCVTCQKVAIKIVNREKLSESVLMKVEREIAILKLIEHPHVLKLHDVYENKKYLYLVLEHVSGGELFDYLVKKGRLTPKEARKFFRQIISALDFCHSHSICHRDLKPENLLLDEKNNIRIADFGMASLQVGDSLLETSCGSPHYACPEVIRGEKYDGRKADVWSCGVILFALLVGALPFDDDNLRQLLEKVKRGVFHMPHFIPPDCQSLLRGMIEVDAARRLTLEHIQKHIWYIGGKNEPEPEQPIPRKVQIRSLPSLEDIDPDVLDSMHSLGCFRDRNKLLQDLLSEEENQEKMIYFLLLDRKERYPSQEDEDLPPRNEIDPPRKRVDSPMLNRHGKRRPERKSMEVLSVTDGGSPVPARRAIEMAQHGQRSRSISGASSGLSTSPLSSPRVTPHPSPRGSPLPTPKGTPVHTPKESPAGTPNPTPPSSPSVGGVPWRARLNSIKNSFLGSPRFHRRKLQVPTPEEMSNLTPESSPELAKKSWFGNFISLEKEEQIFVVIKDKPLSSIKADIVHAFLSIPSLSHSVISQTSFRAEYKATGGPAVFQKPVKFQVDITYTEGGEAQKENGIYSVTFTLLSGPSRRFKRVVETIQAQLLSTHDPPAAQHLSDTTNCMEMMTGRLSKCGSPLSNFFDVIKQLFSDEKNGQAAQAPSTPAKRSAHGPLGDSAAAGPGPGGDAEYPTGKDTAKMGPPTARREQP
As to conditions: kinase BRSK2, compound 10 uM; for remaining activity at 10 µM: read-out: % Enzyme Activity (relative to DMSO controls).

Assay [5] deals with T5, 382 unique human kinases (Homo sapiens, UniProt P07949, Y806H).
T5 construct: purchased Reaction Biology (HotSpot contract assay)
As to conditions: RET (Y806H), 10 uM; for remaining activity at 10 µM: read-out: % Enzyme Activity (relative to DMSO controls).

Assay [6] has as its target T6, 382 unique human kinases (Homo sapiens, UniProt P08631).
T6 construct: purchased Reaction Biology (HotSpot contract assay)
The following applies: HCK, [ATP] 30 µM.

Assay [7] concerns the target T7, 382 unique human kinases (Homo sapiens, UniProt Q9UM73, T1151M).
T7 construct: purchased Reaction Biology (HotSpot contract assay)
As to conditions: ALK (T1151M), [ATP] 50 µM, compound 10 uM; for remaining activity at 10 µM: read-out: % Enzyme Activity (relative to DMSO controls).

The target of assay [8] is T8, 382 unique human kinases (Homo sapiens, UniProt P35916).
T8 construct: purchased Reaction Biology (HotSpot contract assay)
The following applies: FLT4/VEGFR3, [ATP] 5 µM, compound 10 uM; for remaining activity at 10 µM: read-out: % Enzyme Activity (relative to DMSO controls).

Assay [9] addresses T9, 382 unique human kinases (Homo sapiens, UniProt P00533, DEL747-749).
T9 construct: purchased Reaction Biology (HotSpot contract assay)
As to conditions: EGFR (d747-749), 10 uM; for remaining activity at 10 µM: read-out: % Enzyme Activity (relative to DMSO controls).

The target of assay [10] is T10, 382 unique human kinases (Homo sapiens, UniProt P08581, V1092I).
T10 construct: purchased Reaction Biology (HotSpot contract assay)
As to conditions: c-MET (V1092I), 10 uM; for remaining activity at 10 µM: read-out: % Enzyme Activity (relative to DMSO controls).

The target of assay [11] is T11, 382 unique human kinases (Homo sapiens, UniProt P53671).
T11 construct: purchased Reaction Biology (HotSpot contract assay)
As to conditions: LIMK2, [ATP] 5 µM, compound 10 uM; for remaining activity at 10 µM: read-out: % Enzyme Activity (relative to DMSO controls).

The mark [12] stands for this setting: compound 10 uM, read-out: % Enzyme Activity (relative to DMSO controls).

T5 sequence (P07949 29-1114 Y806H): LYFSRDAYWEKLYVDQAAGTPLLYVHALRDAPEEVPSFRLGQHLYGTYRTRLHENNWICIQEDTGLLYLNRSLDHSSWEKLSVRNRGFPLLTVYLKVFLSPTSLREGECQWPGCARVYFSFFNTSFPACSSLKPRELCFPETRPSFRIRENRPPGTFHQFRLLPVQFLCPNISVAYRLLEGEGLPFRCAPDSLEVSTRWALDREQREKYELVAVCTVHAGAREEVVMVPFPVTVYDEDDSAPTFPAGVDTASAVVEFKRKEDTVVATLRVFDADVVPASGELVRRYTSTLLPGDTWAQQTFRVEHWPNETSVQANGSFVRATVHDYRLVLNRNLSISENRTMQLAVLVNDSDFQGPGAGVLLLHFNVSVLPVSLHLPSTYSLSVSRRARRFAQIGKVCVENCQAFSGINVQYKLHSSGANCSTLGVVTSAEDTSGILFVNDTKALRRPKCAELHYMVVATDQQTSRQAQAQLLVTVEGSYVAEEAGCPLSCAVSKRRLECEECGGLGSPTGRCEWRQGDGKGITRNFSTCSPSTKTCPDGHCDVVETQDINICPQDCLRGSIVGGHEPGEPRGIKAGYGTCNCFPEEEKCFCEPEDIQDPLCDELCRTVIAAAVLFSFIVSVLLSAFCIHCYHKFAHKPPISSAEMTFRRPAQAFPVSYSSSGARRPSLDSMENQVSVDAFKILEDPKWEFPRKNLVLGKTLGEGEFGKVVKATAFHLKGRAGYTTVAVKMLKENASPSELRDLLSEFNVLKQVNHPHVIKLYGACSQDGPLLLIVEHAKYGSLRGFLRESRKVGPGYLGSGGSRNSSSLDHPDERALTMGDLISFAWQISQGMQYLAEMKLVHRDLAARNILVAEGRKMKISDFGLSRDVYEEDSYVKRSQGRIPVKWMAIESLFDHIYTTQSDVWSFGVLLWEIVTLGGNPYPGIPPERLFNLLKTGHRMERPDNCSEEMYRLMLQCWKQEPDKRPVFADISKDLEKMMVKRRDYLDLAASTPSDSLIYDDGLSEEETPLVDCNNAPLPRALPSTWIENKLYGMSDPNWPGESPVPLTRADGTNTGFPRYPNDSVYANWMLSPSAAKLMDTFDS
T6 sequence (P08631 whole entry): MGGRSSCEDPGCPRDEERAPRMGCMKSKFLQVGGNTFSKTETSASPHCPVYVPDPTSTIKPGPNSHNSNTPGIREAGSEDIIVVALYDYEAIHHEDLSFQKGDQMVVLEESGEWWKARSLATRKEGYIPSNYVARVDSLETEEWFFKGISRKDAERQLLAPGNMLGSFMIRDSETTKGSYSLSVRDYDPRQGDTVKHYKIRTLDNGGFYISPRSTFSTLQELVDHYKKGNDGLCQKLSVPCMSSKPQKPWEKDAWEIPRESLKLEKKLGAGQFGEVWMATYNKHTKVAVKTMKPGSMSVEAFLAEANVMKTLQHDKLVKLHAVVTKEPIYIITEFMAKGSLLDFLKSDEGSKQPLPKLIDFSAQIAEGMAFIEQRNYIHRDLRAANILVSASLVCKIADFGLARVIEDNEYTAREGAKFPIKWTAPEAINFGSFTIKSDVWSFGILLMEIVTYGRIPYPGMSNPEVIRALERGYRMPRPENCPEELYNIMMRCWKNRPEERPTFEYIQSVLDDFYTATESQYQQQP
T3 sequence (P07949 29-1114): as the sequence (P07949 29-1114 Y806H) above, with H778Y counted along it
T8 sequence (P35916 25-1363): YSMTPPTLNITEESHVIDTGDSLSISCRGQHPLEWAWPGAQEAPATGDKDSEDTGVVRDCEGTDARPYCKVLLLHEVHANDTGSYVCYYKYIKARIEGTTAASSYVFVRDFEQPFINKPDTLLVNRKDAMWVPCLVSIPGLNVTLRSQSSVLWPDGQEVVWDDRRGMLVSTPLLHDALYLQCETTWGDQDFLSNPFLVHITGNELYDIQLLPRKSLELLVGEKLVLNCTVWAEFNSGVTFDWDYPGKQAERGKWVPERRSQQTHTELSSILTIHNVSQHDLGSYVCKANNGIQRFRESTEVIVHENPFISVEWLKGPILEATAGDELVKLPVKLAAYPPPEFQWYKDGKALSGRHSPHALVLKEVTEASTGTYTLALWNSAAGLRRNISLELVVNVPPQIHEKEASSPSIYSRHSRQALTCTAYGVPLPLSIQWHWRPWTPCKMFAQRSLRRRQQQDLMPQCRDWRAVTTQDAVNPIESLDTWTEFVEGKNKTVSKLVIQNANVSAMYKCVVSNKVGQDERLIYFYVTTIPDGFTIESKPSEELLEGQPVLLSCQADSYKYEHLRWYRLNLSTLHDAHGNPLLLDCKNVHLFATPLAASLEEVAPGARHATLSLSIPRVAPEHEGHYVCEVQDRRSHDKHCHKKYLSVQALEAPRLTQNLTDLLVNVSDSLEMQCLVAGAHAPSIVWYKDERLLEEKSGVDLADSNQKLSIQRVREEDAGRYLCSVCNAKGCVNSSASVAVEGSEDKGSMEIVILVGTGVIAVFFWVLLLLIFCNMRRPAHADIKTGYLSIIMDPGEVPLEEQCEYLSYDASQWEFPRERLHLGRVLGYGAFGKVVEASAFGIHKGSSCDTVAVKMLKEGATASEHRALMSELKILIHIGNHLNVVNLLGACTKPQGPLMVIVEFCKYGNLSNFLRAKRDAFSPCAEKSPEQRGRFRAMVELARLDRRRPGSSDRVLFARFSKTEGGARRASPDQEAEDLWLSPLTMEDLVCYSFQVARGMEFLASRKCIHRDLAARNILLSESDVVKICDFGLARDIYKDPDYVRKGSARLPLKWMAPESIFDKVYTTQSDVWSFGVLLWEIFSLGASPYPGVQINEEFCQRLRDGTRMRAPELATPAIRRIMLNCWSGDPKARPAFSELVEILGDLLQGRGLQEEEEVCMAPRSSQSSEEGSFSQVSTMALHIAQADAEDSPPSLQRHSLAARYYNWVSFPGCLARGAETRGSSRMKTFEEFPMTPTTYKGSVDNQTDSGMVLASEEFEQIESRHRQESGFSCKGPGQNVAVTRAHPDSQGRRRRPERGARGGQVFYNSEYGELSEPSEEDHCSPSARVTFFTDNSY
T7 sequence (Q9UM73 19-1620 T1151M): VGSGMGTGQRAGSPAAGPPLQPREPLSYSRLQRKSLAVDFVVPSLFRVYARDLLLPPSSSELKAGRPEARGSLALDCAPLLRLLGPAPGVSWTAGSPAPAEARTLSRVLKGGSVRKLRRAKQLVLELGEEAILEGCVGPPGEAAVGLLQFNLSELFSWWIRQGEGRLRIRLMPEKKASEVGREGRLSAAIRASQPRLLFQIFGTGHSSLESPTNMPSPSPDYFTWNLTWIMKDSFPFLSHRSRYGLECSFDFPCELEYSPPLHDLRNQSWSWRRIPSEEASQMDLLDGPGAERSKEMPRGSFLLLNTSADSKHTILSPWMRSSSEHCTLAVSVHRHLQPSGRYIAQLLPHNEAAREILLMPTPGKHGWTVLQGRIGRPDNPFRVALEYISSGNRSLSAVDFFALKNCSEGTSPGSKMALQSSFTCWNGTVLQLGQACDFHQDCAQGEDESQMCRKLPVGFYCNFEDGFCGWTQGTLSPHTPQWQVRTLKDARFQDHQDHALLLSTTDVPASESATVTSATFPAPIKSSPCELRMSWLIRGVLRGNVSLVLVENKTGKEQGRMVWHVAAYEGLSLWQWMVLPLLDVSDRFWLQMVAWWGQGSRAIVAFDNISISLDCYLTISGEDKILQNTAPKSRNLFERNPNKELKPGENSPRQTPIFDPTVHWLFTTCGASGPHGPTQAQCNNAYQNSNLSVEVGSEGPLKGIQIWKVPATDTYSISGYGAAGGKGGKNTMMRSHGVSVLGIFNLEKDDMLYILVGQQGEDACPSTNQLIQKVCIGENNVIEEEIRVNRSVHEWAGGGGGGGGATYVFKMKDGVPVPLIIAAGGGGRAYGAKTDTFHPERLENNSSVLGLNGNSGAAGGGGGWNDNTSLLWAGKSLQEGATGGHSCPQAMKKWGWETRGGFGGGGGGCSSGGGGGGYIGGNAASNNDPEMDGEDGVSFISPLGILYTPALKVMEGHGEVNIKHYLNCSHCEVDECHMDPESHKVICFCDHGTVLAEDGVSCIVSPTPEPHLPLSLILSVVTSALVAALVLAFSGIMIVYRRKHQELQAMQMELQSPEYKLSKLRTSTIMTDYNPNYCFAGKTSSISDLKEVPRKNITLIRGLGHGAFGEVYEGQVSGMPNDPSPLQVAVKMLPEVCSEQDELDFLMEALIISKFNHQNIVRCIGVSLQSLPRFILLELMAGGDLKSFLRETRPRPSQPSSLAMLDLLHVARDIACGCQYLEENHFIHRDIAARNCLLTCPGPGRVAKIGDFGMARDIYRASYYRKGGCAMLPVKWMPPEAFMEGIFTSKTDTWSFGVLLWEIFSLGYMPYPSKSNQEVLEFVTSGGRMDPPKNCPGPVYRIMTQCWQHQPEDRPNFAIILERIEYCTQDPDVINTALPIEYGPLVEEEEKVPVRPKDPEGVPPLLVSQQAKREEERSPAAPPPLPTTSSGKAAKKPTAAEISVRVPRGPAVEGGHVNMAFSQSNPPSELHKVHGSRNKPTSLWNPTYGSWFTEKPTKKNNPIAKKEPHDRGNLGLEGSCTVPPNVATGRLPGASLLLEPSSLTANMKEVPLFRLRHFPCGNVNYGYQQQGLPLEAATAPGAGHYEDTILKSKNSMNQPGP

For `CC(C)c1cc(-c2n[nH]c(=O)n2-c2ccc3c(ccn3C)c2)c(O)cc1O` [Ganetespib (STA9090)], the remaining activity at 10 µM stood at 71.3% on 382 unique human kinases [1]; 88.2% at 382 unique human kinases [2]; 84.5% on 382 unique human kinases [3]; 82.8% on 382 unique human kinases [4]; 78.2% on 382 unique human kinases [5].
Regarding `CC(C)c1cc(-c2n[nH]c(=O)n2-c2ccc3c(ccn3C)c2)c(O)cc1O` [Ganetespib], on 382 unique human kinases [6] (compound 1 uM, read-out: % Enzyme Activity (relative to DMSO controls)), the remaining activity at 1 µM amounted to 77.7%. Moreover, the remaining activity at 10 µM was 14.5% on 382 unique human kinases [6] (setting [12]); 45.5% on 382 unique human kinases [7]; 47.4% on 382 unique human kinases [8]; 96.5% on 382 unique human kinases [9]; 98.3% at 382 unique human kinases [10]; 46.7% on 382 unique human kinases [11].
As for `CCNC(=O)c1noc(-c2cc(C(C)C)c(O)cc2O)c1-c1ccc(CN2CCOCC2)cc1` [Luminespib (AUY-922)], the “% Enzyme Activity (relative to DMSO controls)” value is given as 109.60% at 382 unique human kinases [1]; 111.45% on 382 unique human kinases [2]; 94.03% at 382 unique human kinases [3]; 83.62% on 382 unique human kinases [4]; 88.98% on 382 unique human kinases [5]. The remaining activity at 10 µM came to 112% on 382 unique human kinases [1]; 113% at 382 unique human kinases [2]; 94.4% on 382 unique human kinases [3]; 83.9% on 382 unique human kinases [4]; 89.6% at 382 unique human kinases [5].
Consider `CCNC(=O)c1noc(-c2cc(C(C)C)c(O)cc2O)c1-c1ccc(CN2CCOCC2)cc1` [Luminespib], for which the “% Enzyme Activity (relative to DMSO controls)” value at 382 unique human kinases [6] (compound 10 uM) is 95.21%; at 382 unique human kinases [7], 99.07%; on 382 unique human kinases [8], 95.96%; on 382 unique human kinases [9], 98.26%; at 382 unique human kinases [10], 95.91%; at 382 unique human kinases [11], 100.64%. Moreover, the remaining activity at 10 µM was 97.2% at 382 unique human kinases [6] (setting [12]); 99.2% at 382 unique human kinases [7]; 96% at 382 unique human kinases [8]; 99.3% on 382 unique human kinases [9]; 97.2% at 382 unique human kinases [10]; 101% at 382 unique human kinases [11].
